Measurements published in ChEMBL document CHEMBL1201862, “PubChem BioAssay data set” (2004).
Calls of active or inactive are those of the source.

Target: Luciferin 4-monooxygenase (Photinus pyralis, UniProt P08659)
Test: firefly luciferase enzyme inhibitors, dose response, biochemical, luminescence (AID 1891)
Settings: not given

Sequence of Luciferin 4-monooxygenase (P08659 whole entry): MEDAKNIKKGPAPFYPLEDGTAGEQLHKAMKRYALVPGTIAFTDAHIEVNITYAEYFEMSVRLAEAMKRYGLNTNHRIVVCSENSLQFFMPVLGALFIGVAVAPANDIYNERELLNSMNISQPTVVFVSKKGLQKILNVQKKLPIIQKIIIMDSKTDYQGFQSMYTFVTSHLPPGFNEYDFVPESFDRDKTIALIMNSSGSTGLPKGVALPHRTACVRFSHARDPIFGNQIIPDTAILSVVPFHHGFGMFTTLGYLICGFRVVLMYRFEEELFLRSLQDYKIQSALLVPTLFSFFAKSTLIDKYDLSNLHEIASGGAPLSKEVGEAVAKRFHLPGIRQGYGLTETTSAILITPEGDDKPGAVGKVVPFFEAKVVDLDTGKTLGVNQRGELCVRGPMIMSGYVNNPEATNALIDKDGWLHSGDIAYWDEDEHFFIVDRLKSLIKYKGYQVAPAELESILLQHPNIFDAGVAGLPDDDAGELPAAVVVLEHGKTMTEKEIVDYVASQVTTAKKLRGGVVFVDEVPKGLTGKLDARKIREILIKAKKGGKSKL

Row | SMILES | EC50
1 | CCOc1cccc(-c2c(C(=O)N/N=C/c3ccc(C)s3)nnn2-c2nonc2N)c1 | > 112 µM (not active)
2 | O=C(NCc1ccco1)c1ccc(-c2ccccc2Cl)o1 | > 112 µM (not active)
3 | Cc1nc(O)nc(O)c1/C=N/NC(=O)CCNC(=O)OC(C)(C)C | > 112 µM (not active)
4 | CCOC(=O)c1ccc2nc(NC(=O)c3cccs3)sc2c1 | 0.729 µM (active)
5 | COc1ccccc1C(=O)NCCC(=O)Nc1ncccc1O | > 112 µM (not active)
6 | COc1ccc(CCNCc2ccc(OCC(=O)N3CCCCC3)c(OC)c2)cc1OC | > 112 µM (not active)
7 | Cn1cc(S(=O)(=O)N2CCOCC2)cc1C(=O)Nc1ccc(Cl)cc1 | > 112 µM (not active)
8 | COc1ccc(/C=C/CN2CCCC(CO)(Cc3cccc(Cl)c3)C2)cc1 (stereo unspecified) | > 112 µM (not active)
9 | CC1CCCCN1Cc1nc2c(c(=O)n(C)c(=O)n2C)n1CCc1ccccc1 (stereo unspecified) | > 112 µM (not active)
10 | Cc1cc(N)n2nc(-c3ccc(C(C)(C)C)cc3)cc2n1 | 0.401 µM (active)
11 | COc1ccccc1N1CCN(C(=O)c2cc(-c3ccccc3O)on2)CC1 | > 112 µM (not active)
12 | O=C(O)c1ccc(COc2cccc(CO)c2)cc1 | 44.4 µM (active)
13 | CCOC(=O)C1=C(C)OC(N)=C(C#N)C1C1CCCCC1 (stereo unspecified) | > 112 µM (not active)

System: not listed separately
Test: Luminescence Cell-Based Dose Confirmation HTS to Identify Inhibitors of Platelet Dense Granule Release. [Related pubchem assays: 1663 (Primary HTS), 1678 (Summary of Project)]
Format: functional
Settings: not given

Row | SMILES | EC50
14 | CCOc1cccc(-c2c(C(=O)N/N=C/c3ccc(C)s3)nnn2-c2nonc2N)c1 | > 112 µM (not active)
15 | O=C(NCc1ccco1)c1ccc(-c2ccccc2Cl)o1 | > 112 µM (not active)
16 | Cc1nc(O)nc(O)c1/C=N/NC(=O)CCNC(=O)OC(C)(C)C | > 112 µM (not active)
17 | CCOC(=O)c1ccc2nc(NC(=O)c3cccs3)sc2c1 | 10.7 µM (active)
18 | COc1ccccc1C(=O)NCCC(=O)Nc1ncccc1O | > 112 µM (not active)
19 | COc1ccc(CCNCc2ccc(OCC(=O)N3CCCCC3)c(OC)c2)cc1OC | 16.3 µM (active)
20 | Cn1cc(S(=O)(=O)N2CCOCC2)cc1C(=O)Nc1ccc(Cl)cc1 | > 112 µM (not active)
21 | COc1ccc(/C=C/CN2CCCC(CO)(Cc3cccc(Cl)c3)C2)cc1 (stereo unspecified) | > 112 µM (not active)
22 | CC1CCCCN1Cc1nc2c(c(=O)n(C)c(=O)n2C)n1CCc1ccccc1 (stereo unspecified) | > 112 µM (not active)
23 | Cc1cc(N)n2nc(-c3ccc(C(C)(C)C)cc3)cc2n1 | 2.35 µM (active)
24 | COc1ccccc1N1CCN(C(=O)c2cc(-c3ccccc3O)on2)CC1 | > 112 µM (not active)
25 | O=C(O)c1ccc(COc2cccc(CO)c2)cc1 | 4.38 µM (active)
26 | CCOC(=O)C1=C(C)OC(N)=C(C#N)C1C1CCCCC1 (stereo unspecified) | > 112 µM (not active)

System: not listed separately
Test: inhibitors of intracellular T. cruzi replication, confirmation, NIH3T3 host cells, beta-gal luminescence (AID 2044);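 note: intracellular parasites grown in NIH/3T3 mouse fibroblasts as host cells; luminescent beta-galactosidase reporter signal from transgenic T. cruzi replicating inside host cells; inhibitors lower the luminescence signal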
Format: functional, cell-based
Settings: not given

Row | SMILES | EC50
27 | COc1ccc(CCNCc2ccc(OCC(=O)N3CCCCC3)c(OC)c2)cc1OC | 0.133 µM (active)

System: not listed separately
Test: cytotoxicity toward NIH3T3 fibroblasts, dose response, counter-screen, cell-based, ATP luminescence, mouse fibroblasts (AID 2010);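 note: cells exposed to compound for about 90 hours before reading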
Format: functional
Settings: not given

Row | SMILES | EC50
28 | COc1ccc(CCNCc2ccc(OCC(=O)N3CCCCC3)c(OC)c2)cc1OC | > 60 µM (inconclusive)

Target: Cytochrome P450 2C19 (Homo sapiens, UniProt P33261)
Test: Cytochrome panel assay with activity outcomes. Panel member name: p450-cyp2c19 Compounds with AC50 equal or less than 10 uM are considered active
Format: functional
Settings: read-out: AC50

Sequence of Cytochrome P450 2C19 (P33261 whole entry): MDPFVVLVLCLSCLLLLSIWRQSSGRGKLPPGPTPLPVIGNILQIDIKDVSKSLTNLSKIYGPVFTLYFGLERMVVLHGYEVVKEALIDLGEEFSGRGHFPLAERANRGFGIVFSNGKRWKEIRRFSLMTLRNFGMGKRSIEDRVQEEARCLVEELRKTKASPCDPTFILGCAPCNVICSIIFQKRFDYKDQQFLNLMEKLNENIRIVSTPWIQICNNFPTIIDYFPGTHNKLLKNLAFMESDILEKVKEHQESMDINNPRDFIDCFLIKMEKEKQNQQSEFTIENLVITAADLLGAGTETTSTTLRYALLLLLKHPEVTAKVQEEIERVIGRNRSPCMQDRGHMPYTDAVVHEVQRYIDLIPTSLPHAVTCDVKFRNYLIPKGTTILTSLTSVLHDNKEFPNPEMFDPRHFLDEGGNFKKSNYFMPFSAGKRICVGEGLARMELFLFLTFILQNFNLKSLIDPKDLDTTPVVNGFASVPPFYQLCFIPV

Row | AC50 | SMILES
29 | 2.24 µM (inconclusive) | Cc1cc(CSc2ccccc2)ccc1NC(=O)COc1ccccc1
30 | 14.1 µM (inconclusive) | Cc1ccc(C2C(C(=O)c3ccccc3)=C(O)C(=O)N2CCN2CCOCC2)o1 (stereo unspecified)
31 | 39.8 µM (inconclusive) | COc1cccc(OC)c1C(=O)Nc1cc(C)on1

Target: T1, Cytochrome P450 1A2 (Homo sapiens, UniProt P05177);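 note: PubChem cytochrome P450 panel assay, CYP1A2 panel member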
T1 sequence (P05177 whole entry): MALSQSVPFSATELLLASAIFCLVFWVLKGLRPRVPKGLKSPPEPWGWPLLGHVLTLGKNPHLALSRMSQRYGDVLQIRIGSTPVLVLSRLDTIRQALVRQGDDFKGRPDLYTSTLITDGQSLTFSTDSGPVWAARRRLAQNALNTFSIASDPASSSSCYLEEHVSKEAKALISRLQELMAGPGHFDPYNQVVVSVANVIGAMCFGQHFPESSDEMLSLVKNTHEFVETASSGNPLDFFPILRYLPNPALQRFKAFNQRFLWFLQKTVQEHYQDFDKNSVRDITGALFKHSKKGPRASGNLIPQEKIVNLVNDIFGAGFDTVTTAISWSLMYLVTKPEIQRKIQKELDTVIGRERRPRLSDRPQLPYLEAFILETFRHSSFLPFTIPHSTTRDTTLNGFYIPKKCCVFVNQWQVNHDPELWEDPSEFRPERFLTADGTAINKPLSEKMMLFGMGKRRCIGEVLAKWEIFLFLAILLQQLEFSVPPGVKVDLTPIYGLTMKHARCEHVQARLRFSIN
Settings: not given

Row | AC50 | SMILES
32 | 7.08 µM (inconclusive) | Cc1cc(CSc2ccccc2)ccc1NC(=O)COc1ccccc1
33 | 6.31 µM (inconclusive) | O=C(CN1CCN(Cc2ccccc2)CC1)N1CCCc2c1c(=O)oc1ccc(O)cc21
34 | 22.4 µM (inconclusive) | COc1cccc(OC)c1C(=O)Nc1cc(C)on1
35 | 12.6 µM (inconclusive) | COc1ccc(CCNC(=O)Cn2c(=O)oc3ccccc32)cc1OC
36 | 25.1 µM (inconclusive) | Cc1nnc(SCC(=O)NCC2CCCCC2)n(N)c1=O

Target: Cytochrome P450 3A4 (Homo sapiens, UniProt P08684);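 note: CYP3A4 tested as one member of a cytochrome P450 panel screen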
Settings: not given

Sequence of Cytochrome P450 3A4 (P08684 whole entry): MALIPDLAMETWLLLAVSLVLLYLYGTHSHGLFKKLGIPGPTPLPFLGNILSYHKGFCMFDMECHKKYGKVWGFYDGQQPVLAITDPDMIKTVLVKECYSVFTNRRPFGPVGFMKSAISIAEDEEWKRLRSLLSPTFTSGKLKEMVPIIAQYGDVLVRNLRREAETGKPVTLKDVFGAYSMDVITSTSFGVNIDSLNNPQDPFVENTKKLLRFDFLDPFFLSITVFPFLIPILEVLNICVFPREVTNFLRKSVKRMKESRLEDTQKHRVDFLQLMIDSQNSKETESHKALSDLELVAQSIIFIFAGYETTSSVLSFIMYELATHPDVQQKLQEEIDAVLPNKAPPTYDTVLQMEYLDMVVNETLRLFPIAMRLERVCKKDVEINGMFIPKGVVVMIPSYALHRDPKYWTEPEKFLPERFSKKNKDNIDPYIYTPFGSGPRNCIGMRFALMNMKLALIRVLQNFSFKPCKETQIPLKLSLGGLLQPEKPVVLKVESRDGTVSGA

Row | AC50 | SMILES
37 | 12.6 µM (inconclusive) | Cc1cc(CSc2ccccc2)ccc1NC(=O)COc1ccccc1
38 | 3.98 µM (inconclusive) | O=C(CN1CCN(Cc2ccccc2)CC1)N1CCCc2c1c(=O)oc1ccc(O)cc21
39 | 25.1 µM (inconclusive) | Cc1ccc(C2C(C(=O)c3ccccc3)=C(O)C(=O)N2CCN2CCOCC2)o1 (stereo unspecified)
40 | 20 µM (inconclusive) | COc1cccc(OC)c1C(=O)Nc1cc(C)on1
41 | 22.4 µM (inconclusive) | COc1ccc(CCNC(=O)Cn2c(=O)oc3ccccc32)cc1OC
42 | 35.5 µM (inconclusive) | CC(C)NC(=O)c1ccccc1NC(=O)/C=C/c1ccc([N+](=O)[O-])cc1
43 | 25.1 µM (inconclusive) | Cc1nnc(SCC(=O)NCC2CCCCC2)n(N)c1=O

Target: Cytochrome P450 2C9 (Homo sapiens, UniProt P11712)
Settings: not given

Sequence of Cytochrome P450 2C9 (P11712 whole entry): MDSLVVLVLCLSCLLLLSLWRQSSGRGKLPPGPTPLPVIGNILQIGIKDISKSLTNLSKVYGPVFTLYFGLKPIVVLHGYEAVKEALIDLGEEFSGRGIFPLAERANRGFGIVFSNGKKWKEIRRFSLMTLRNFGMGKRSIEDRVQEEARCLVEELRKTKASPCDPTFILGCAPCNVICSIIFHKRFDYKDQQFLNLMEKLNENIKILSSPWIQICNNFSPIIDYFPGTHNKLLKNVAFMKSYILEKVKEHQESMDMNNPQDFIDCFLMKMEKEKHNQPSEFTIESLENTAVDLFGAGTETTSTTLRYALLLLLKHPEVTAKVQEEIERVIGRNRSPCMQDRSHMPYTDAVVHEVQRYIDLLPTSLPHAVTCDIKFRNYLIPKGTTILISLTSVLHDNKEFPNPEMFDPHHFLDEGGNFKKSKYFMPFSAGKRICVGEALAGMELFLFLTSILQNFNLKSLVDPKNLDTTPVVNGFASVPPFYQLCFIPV

Row | AC50 | SMILES
44 | 7.08 µM (inconclusive) | Cc1ccc(C2C(C(=O)c3ccccc3)=C(O)C(=O)N2CCN2CCOCC2)o1 (stereo unspecified)
45 | 2.51 µM (inconclusive) | COc1ccc(CCNC(=O)Cn2c(=O)oc3ccccc32)cc1OC
46 | 2 µM (inconclusive) | CC(C)NC(=O)c1ccccc1NC(=O)/C=C/c1ccc([N+](=O)[O-])cc1
